Like-named read-outs stand apart in the source and are kept apart here.
What was measured:
canine BGT1 = target: T1, canine BGT1 (Canis lupus familiaris, UniProt P27799); experiment: [3H]GABA uptake at canine BGT1 endogenously expressed in MDCK II cells; format: cell-based
T1 construct: the MDCK II cell line express BGT1 endogenously; endogenous in cells; host or cells: MDCK II
T1 sequence (P27799 1-614): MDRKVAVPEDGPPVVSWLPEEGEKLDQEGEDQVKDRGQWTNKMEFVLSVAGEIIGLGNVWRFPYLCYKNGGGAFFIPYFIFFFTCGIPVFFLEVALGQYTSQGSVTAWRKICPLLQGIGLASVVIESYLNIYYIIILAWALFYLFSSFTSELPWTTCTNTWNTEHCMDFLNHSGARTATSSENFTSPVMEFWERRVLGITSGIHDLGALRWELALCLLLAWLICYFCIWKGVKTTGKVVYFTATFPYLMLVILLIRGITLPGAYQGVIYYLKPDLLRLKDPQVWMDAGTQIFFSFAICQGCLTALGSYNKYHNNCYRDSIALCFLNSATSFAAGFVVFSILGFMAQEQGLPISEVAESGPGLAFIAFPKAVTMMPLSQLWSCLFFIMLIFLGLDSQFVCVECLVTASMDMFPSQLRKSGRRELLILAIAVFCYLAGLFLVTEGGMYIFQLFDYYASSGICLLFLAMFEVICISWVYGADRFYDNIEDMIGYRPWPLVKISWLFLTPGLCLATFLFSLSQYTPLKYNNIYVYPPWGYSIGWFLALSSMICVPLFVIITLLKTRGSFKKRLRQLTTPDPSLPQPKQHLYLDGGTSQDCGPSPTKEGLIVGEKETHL
Description: The HEK-293 and Flp-In CHO cell lines stably expressing mouse (m) and human (h) GATs, respectively, have been described previously and were cultured accordingly. The tsA201 cell line was used for transient expression while the MDCK II cell line express BGT1 endogenously. Both cell lines were cultured as described. tsA201 cells were transfected with DNA constructs (8 μg per 10 cm dish if not otherwise mentioned) using 40 μL PolyFect transfection reagent according to the manufacturer’s protocol (Qiagen, Venlo, Netherlands). The DNA constructs encoding hBGT1, hGAT1-3 [36], the mutated constructs hBGT1 Q299 and hGAT3 L314Q described previously, and hBGT Y453A were synthesized and sequence validated by Genscript (NJ, USA).
The [^3H]GABA competition uptake assay was performed as previously described. A minor change, however, was introduced for uptake in MDCK II cells, in which 100 nM [^3H]GABA was used for a 15 min incubation period at 37 °C instead of 30 nM [^3H]GABA and 3 min incubation. Studies related to the inhibition curves with GABA and BPDBA at hBGT1 were obtained both with and without the presence of 10 μM ATP during the [^3H]GABA uptake assay.
The [^3H]GABA uptake data was normalized to the percentage of total uptake in the individual experiments in the presence of the lowest compound concentration or no compound present. Data presented is the pooled data of at least three independent experiments with three technical replicates. Concentration–response curves (CRCs) were fitted with GraphPad Prism (version 8.2.1, Yosemite, GraphPad Software, San Diego, CA, USA) by non-linear regression to the sigmoidal concentration response model: Y=Bottom+(Top-Bottom)/1+10^LogIC50-X∗nH where Top is the Top plateau, Bottom is the Bottom plateau, X is the logarithm of the concentration of the compound, LogIC50 is the concentration giving a response halfway between Top and Bottom,and nH is the Hill slope.
The best fit for CRCs obtained with the [^3H]GABA uptake assay was identified by the extra-sum-of-squares F test (for convenience referred to as F test).

CF-1 mice = experiment: Maximal electroshock (MES) test; format: in vivo, mouse; settings: for #Protected/#Tested: 15 min
Excerpt: Male audiogenic-susceptible (AGS) Frings mice were obtained from an in-house breeding facility at the University of Utah (Salt Lake City, UT, USA). Male CF-1 mice for the maximal electroshock (MES) test and the subcutaneous pentylenetetrazol (s.c.PTZ) seizure threshold test were purchased from Charles River (Kingston, WA, USA). All mice were housed in a temperature, humidity, and light (on at 6:00 AM) controlled facility at the University of Utah with access to ad libitum food and water except during testing. All procedures were carried out at the University of Utah in concordance with the National Institutes of Health Guidelines for the Care and Use of Laboratory Animals and under approval from the University of Utah’s Institutional Animal Care and Use Committee. The mice were euthanized in accordance with Public Health Service policies on the humane care of laboratory animals. […] This is a model of generalised tonic–clonic seizures, and was conducted as described previously. In brief, a drop of anaesthetic/electrolyte solution (0.5% tetracaine hydrochloride in 0.9% saline) was applied to the cornea of each animal prior to placement of the silver-coated corneal electrodes. An alternating current of 50 mA (60 Hz) was delivered for 0.2 s to the cornea of the mouse using a Woodbury–Davenport stimulator. The supramaximal current applied to the cornea was sufficient to induce maximal tonic extension seizures in all non-treated mice. […] Those mice not displaying full hind limb tonic extension seizures were considered protected. Probit analysis was used to analyse the efficacy and tolerability results obtained from the dose–response studies and to calculate the median effective (ED50) dose, the median toxic dose (TD50), and the 95% confidence interval.

5-HT2A = target: T2, 5-HT2A (Homo sapiens, UniProt P28223); experiment: NIMH PDSP radioligand binding, 5-HT2A; settings: radioligand [3H]ketanserin, n=4
T2 construct: purchased NIMH Psychoactive Drug Screening Program (PDSP)
T2 sequence (P28223 whole entry): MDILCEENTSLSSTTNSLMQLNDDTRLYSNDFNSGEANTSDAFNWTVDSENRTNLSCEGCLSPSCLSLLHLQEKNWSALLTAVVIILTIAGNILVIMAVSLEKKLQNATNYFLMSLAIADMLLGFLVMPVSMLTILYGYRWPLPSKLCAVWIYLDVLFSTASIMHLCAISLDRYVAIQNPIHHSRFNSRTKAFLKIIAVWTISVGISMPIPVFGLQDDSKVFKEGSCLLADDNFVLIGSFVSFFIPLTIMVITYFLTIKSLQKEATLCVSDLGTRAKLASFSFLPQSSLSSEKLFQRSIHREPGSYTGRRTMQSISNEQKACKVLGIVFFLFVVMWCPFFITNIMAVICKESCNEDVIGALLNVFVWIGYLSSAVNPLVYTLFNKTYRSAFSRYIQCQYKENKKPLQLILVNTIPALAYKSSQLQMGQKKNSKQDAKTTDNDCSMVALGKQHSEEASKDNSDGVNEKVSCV

5-HT5A = target: T3, 5-HT5A (Homo sapiens, UniProt P47898); experiment: NIMH PDSP radioligand binding, 5-HT5A; settings: radioligand [3H]LSD, n=4
T3 construct: purchased NIMH Psychoactive Drug Screening Program (PDSP)
T3 sequence (P47898 whole entry): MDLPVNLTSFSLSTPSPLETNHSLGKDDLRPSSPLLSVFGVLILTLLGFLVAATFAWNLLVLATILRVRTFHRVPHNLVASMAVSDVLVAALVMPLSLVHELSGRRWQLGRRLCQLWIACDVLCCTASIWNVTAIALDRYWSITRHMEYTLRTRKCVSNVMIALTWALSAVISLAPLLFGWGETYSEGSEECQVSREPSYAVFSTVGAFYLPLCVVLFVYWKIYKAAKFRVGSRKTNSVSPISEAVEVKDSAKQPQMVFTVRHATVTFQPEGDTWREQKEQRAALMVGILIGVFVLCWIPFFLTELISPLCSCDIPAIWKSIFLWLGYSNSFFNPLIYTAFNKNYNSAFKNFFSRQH

5-HT7 = target: T4, 5-HT7 (Homo sapiens, UniProt P34969); experiment: NIMH PDSP radioligand binding, 5-HT7; settings: radioligand [3H]LSD, n=4
T4 construct: purchased NIMH Psychoactive Drug Screening Program (PDSP)
T4 sequence (P34969 whole entry): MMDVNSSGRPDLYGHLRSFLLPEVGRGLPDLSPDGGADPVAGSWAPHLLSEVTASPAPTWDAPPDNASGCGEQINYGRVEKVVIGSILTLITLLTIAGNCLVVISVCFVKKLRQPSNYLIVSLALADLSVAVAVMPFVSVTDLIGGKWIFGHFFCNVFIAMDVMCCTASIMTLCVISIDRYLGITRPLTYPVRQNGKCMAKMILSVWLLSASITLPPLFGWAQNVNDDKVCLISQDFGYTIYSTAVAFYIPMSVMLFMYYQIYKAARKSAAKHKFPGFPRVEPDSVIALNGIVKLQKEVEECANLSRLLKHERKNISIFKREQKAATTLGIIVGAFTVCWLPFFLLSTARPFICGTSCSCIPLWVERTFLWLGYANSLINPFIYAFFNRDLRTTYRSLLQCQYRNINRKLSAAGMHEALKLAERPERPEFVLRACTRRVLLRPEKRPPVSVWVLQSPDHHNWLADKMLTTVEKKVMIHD

Alpha1A = target: T5, Alpha1A (Homo sapiens, UniProt P35348); experiment: NIMH PDSP radioligand binding, Alpha1A; settings: radioligand [3H]prazosine, n=4
T5 construct: purchased NIMH Psychoactive Drug Screening Program (PDSP)
T5 sequence (P35348 whole entry): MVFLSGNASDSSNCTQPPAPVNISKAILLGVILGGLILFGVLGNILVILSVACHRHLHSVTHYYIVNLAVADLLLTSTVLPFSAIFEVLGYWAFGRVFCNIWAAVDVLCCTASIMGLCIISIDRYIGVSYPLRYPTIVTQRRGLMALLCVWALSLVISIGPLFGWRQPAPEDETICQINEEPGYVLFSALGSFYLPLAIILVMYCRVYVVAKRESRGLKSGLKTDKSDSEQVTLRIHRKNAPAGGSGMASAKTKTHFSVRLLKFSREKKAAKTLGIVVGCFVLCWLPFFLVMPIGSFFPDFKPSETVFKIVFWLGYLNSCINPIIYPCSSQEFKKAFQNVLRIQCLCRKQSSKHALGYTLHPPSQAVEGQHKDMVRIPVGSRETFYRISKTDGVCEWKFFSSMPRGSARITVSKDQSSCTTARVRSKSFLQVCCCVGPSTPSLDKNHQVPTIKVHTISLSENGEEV

Beta1 = target: T6, Beta1 (Homo sapiens, UniProt P08588); experiment: NIMH PDSP radioligand binding, Beta1; settings: radioligand [125I]pindolol, n=4
T6 construct: purchased NIMH Psychoactive Drug Screening Program (PDSP)
T6 sequence (P08588 whole entry): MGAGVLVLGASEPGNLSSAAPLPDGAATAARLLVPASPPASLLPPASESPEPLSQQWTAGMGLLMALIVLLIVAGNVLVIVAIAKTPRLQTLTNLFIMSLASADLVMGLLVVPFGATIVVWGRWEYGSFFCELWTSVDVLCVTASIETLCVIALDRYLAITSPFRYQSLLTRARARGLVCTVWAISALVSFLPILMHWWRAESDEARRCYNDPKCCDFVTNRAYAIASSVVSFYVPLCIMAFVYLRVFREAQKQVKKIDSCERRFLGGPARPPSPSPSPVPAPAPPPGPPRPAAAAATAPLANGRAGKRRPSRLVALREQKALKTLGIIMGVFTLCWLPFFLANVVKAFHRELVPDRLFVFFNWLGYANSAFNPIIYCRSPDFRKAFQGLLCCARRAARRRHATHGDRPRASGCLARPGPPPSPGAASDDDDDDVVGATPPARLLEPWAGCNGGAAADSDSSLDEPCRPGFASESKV

KOR = target: T7, KOR (Homo sapiens, UniProt P41145); experiment: NIMH PDSP radioligand binding, KOR; settings: radioligand [3H]U69593, n=4
T7 construct: purchased NIMH Psychoactive Drug Screening Program (PDSP)
T7 sequence (P41145 whole entry): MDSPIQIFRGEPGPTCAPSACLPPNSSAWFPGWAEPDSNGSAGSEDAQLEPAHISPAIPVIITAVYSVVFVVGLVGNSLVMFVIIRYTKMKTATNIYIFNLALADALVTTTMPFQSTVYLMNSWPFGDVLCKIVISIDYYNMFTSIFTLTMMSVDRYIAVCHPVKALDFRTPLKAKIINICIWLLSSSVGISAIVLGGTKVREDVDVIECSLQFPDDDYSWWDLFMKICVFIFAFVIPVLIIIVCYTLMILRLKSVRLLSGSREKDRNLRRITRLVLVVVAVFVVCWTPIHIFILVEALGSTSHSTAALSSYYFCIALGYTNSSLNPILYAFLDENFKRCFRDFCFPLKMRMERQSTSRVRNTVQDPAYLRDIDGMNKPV

## Cc1ccsc1C(=CCCN(C)[C@H]1CCCC[C@H]1C(=O)O)c1sccc1C [SBV2-114, (1R,2S)-2-((4,4-bis(3-methylthiophen-2-yl)but-3-en-yl)(methyl)amino)cyclohexanecarboxylic acid]
Canine BGT1
  Frac: 0.38
Canine BGT1; IC50, high affinity component, biphasic fit, 100 nM [3H]GABA, 15 min
  IC50: 100 nM
Canine BGT1; pIC50 ± S.E.M., high affinity component, biphasic fit, 100 nM [3H]GABA, 15 min
  IC50: 105 nM
Canine BGT1; read-out: IC50, low affinity component, biphasic fit, 100 nM [3H]GABA, 15 min
  IC50: 251000 nM
CF-1 mice; 50 mg/kg i.p.
  #Protected/#Tested: 0/3
CF-1 mice; 100 mg/kg i.p.
  #Protected/#Tested: 0/4
CF-1 mice; 125 mg/kg i.p.
  #Protected/#Tested: 2/7
CF-1 mice; 150 mg/kg i.p.
  #Protected/#Tested: 4/6
CF-1 mice; 200 mg/kg i.p.
  #Protected/#Tested: 4/4
CF-1 mice; Mus musculus, ip
  ED50: 139 mg/kg
5-HT2A
  inhibition at 10 µM: 20%
5-HT5A
  inhibition at 10 µM: 36.6%
5-HT7
  inhibition at 10 µM: 14.1%
Alpha1A
  inhibition at 10 µM: 0.1%
Beta1
  inhibition at 10 µM: 37.9%
KOR
  inhibition at 10 µM: 40.8%

Source: PMC7297817, “Pharmacological Characterization of a Betaine/GABA Transporter 1 (BGT1) Inhibitor Displaying an Unusual Biphasic Inhibition Profile and Anti-seizure Effects” (Neurochemical Research, 2020)
